Source: paper PMC7178511, “Antimicrobial Activity and DNA/BSA Binding Affinity of Polynuclear Silver(I) Complexes with 1,2-Bis(4-pyridyl)ethane/ethene as Bridging Ligands” (Bioinorganic Chemistry and Applications, 2020)
In brackets after ≈: the same amount, converted by molar mass. Marks after values point to notes of the source that are not given here.

Tests used:
[1] = test system: genomic DNA isolated from C. albicans ATCC 10231; assay: DNA interaction assay using gel electrophoresis; type: binding, Candida albicans; conditions: 40, 100 and 400 μM complex, 2 h, 30°C, Tris buffer pH 8.5
Method: DNA interaction assay using gel electrophoresis has also been conducted according to the previously published procedure using high molecular weight (HMW) genomic DNA isolated from C. albicans ATCC 10231. Briefly, DNA (50 ng/μL final concentration) was incubated with 40, 100, and 400 μM final concentration of silver(I) complexes 1–3 in Tris buffer, pH 8.5 in 50 μL reaction volume. After 2 h incubation at 30°C, 10 μL aliquots were taken, mixed with loading dye, and loaded on agarose gel. Control contained an appropriate volume of DMSO. DNA samples were run, 500 ng per lane, on 0.8% agarose gel with ethidium bromide (EthBr) against O'GeneRuler™ 1 kb Plus DNA Ladder (Thermo Scientific™) at 60 V for 1 h. Gels were visualized and analyzed using the Gel Doc EZ system (Bio-Rad, Life Sciences, Hercules, USA), equipped with the Image Lab™ Software.

[2] = test system: Salmonella pullorum ATCC 13036; assay: Broth microdilution MIC, S. pullorum; type: cell-based; conditions: 24 h
Method: (§1) Minimal inhibitory concentration (MIC) values against Pseudomonas aeruginosa PA01, Staphylococcus aureus ATCC 43300, Salmonella enteritidis ATCC 13075, Salmonella pullorum ATCC 13036, Escherichia coli NCTC 9001, Listeria monocytogenes NCTC 11994, and Enterococcus faecalis ATCC 29212 were determined in Luria-Bertani broth (10.0 g/L tryptone, 10.0 g/L NaCl, 5.0 g/L yeast extract, pH 7.2) in accordance with the standard broth microdilution assay for bacteria that grow aerobically, as recommended by the CLSI (Clinical and Laboratory Standards Institute, Methods for Dilution Antimicrobial Susceptibility Tests for Bacteria That Grow Aerobically; Approved Standard—Tenth Edition M07-A10. CLSI). The highest tested concentration was 500 μg/mL, and the inocula were 1^·10^6 cfu/mL.

[3] = test system: Pseudomonas aeruginosa PAO1; assay: Broth microdilution MIC, P. aeruginosa; type: cell-based
Method: as §1

calf thymus DNA (ctDNA) = assay: Competitive EthBr-DNA fluorescence binding experiment; conditions: Fluorescent titration, pH 7.4
Method: The competitive DNA-silver(I) complex binding experiments were carried out in the buffer (pH 7.4) by maintaining [DNA]/[EthBr] = 5, while increasing the concentration of the complexes 1–3. Each sample solution was scanned in the wavelength range 525–800 nm with an excitation wavelength of 520 nm. The Stern-Volmer constants (Ksv), which represent a measure of the binding propensity of the complexes to DNA, were calculated using the following equation [29]:(2) F0/F=1+Kqτ0complex=1+Ksvcomplex, where F0 and F are the fluorescence intensities in the absence and presence of the complexes, respectively. Kq stands for bimolecular quenching constant and τ0 (10^−8 s) is the lifetime of the fluorophore in the absence of the quencher. The binding constants (KA) and apparent binding sites (n) can be calculated by using the following equation [28]:(3) logF0−F/F=log KA+n logcomplex, where KA stands for the binding constant of the silver(I) complex with ctDNA and n stands for the apparent number of binding sites.

C. albicans ATCC 10231 = assay: Broth microdilution MIC, C. albicans; type: cell-based, Candida albicans
Method: (§2) Stock solutions of bpa, bpe, and silver(I) complexes 1–3 were prepared fresh in DMSO (50 mg/mL) and kept at 4°C prior to use. Susceptibility testing of Candida spp. (C. albicans ATCC 10231, C. krusei ATCC 6258, C. parapsilosis ATCC 22019, and C. glabrata ATCC 2001) was performed according to CLSI broth microdilution guidelines (Clinical and Laboratory Standards Institute, Reference Method for Broth Dilution Antifungal Susceptibility Testing of Yeasts—Third Edition: Approved Standard M27-A3; Clinical and Laboratory Standards Institute, Reference Method for Broth Dilution Antifungal Susceptibility Testing of Yeasts: Fourth Informational Supplement M27-S4), in RPMI 1640 medium (Roswell Park Memorial Institute medium) containing 2% glucose (w/v). The highest tested concentration was 500 μg/mL, and the inocula were 1^·\10^5 colony forming units (cfu)/mL.

[4] = test system: C. albicans expressing red fluorescent protein; assay: C. albicans filamentation study; type: cell-based, Candida albicans; conditions: MIC80 of complex, 6 h, 37°C, RPMI 1640 with 10% FBS
Method: The suspension of C. albicans expressing red fluorescent protein was prepared in RPMI 1640 medium with 10% (v/v) fetal bovine serum (FBS) to induce hyphae formation. The suspension was then treated with MIC80 concentrations of 1–3 at 37°C shaking. Cells treated with DMSO served as the control. After 6 h of incubation, the results were observed by a fluorescence microscope (Olympus BX51, Applied Imaging Corp., San Jose, CA, United States) under 20× magnification.

[5] = test system: Listeria monocytogenes NCTC 11994; assay: Broth microdilution MIC, L. monocytogenes; type: cell-based
Method: as §1

[6] = test system: human lung fibroblast cell line MRC-5; assay: MTT assay on a human fibroblast cell line; type: cell-based; conditions: MRC-5, MTT, 48 h
Method: (§3) Antiproliferative activity was tested by 3-(4,5-dimethylthiazol-2-yl)-2,5-diphenyltetrazolium bromide (MTT) assay on a human lung fibroblast cell line (MRC-5; ATCC collection). Pregrown (24 h) cell monolayers were incubated in the media containing the tested compounds at concentrations ranging from 5 to 500 μg/mL and the cell viability was measured after 48 h. RPMI 1640 medium supplemented with 100 μg/mL streptomycin, 100 U/mL penicillin, and 10% (v/v) FBS (all from Sigma, Munich, Germany) was used for the cultivation of MRC-5 cell line. Cells were maintained as a monolayer (1^·10^4 cells per well) in RPMI 1640 and grown in a humidified atmosphere of 95% air and 5% CO2 at 37°C. The extent of MTT reduction was measured spectrophotometrically at 540 nm using Tecan Infinite 200 Pro multiplate reader (Tecan Group Ltd, Männedorf, Switzerland), and the cell survival was expressed as a percentage of the control (untreated cells). Cytotoxicity was expressed as the concentration of the compound inhibiting cell growth by 50% (IC50).

[7] = test system: C. parapsilosis ATCC 22019; assay: Broth microdilution MIC, C. parapsilosis; type: cell-based, Candida parapsilosis
Method: as §2

[8] = test system: Escherichia coli NCTC 9001; assay: Broth microdilution MIC, E. coli; type: cell-based
Method: as §1

C. krusei ATCC 6258 = assay: Broth microdilution MIC, C. krusei; type: cell-based, Candida krusei
Method: as §2

[9] = test system: Staphylococcus aureus ATCC 43300; assay: Broth microdilution MIC, S. aureus; type: cell-based
Method: as §1

[10] = test system: Enterococcus faecalis ATCC 29212; assay: Broth microdilution MIC, E. faecalis; type: cell-based
Method: as §1

[11] = test system: Salmonella enteritidis ATCC 13075; assay: Broth microdilution MIC, S. enteritidis; type: cell-based; conditions: 24 h
Method: as §1

C. glabrata ATCC 2001 = assay: Broth microdilution MIC, C. glabrata; type: cell-based, Candida glabrata
Method: as §2

[12] = target: T1, bovine serum albumin (BSA) (Bos taurus, UniProt P02769); assay: BSA tryptophan fluorescence quenching; type: binding; conditions: BSA 13.1 μM, Tris buffer pH 7.4
T1 construct: purchased Sigma-Aldrich
T1 sequence (P02769 25-607): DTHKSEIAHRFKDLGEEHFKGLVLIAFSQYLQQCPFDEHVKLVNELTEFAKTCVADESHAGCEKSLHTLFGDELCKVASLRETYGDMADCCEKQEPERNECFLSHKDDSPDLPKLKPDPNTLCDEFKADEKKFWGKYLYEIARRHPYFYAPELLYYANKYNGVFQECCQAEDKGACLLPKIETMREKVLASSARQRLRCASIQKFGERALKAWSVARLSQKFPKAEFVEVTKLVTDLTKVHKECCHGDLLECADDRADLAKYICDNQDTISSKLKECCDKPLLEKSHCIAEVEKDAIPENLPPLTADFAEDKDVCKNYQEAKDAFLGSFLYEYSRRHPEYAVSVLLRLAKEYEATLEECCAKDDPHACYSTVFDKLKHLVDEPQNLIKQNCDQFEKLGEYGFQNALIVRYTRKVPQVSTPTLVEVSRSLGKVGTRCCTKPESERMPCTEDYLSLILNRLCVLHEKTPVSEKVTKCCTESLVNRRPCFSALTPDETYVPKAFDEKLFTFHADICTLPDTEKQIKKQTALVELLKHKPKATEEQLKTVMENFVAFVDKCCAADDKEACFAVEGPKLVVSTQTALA
Method: The protein binding study was performed by tryptophan fluorescence quenching experiments using BSA (13.1 μM) in Tris buffer solution (pH 7.4). The quenching of the emission intensity of tryptophan residues of BSA at 352 nm was monitored using the increasing concentration of the complexes 1–3 (up to 464.9 μM). Fluorescence spectra were recorded in the range 280–500 nm with an excitation wavelength of 275 nm. The corresponding binding constants of the complexes (KA) and apparent binding sites (n) were calculated as it was previously explained.

[13] = test system: C. albicans infected zebrafish; parameters: method as in PMID 30952084; conditions: at MIC doses; cited from earlier work
C. albicans = test system: C. albicans; parameters: method as in PMID 30952084; conditions: at MIC doses; cited from earlier work
[14] = test system: investigated bacterial strains; assay: Broth microdilution MIC, panel of bacterial strains; type: cell-based
Method: as §1

[15] = MTT assay on a human fibroblast cell line; type: cell-based; conditions: human, MRC-5, MTT, read-out: IC50 (cytotoxic effect on MRC-5 cells)
Method: as §3

[16] = S. pullorum ATCC 13036, Luria-Bertani broth, 37°C
[17] = P. aeruginosa PAO1, Luria-Bertani broth, 24 h, 37°C
[18] = C. albicans ATCC 10231, RPMI 1640 with 2% glucose
[19] = L. monocytogenes NCTC 11994, Luria-Bertani broth, 24 h, 37°C
[20] = C. parapsilosis ATCC 22019, RPMI 1640 with 2% glucose
[21] = E. coli NCTC 9001, Luria-Bertani broth, 24 h, 37°C
[22] = C. krusei ATCC 6258, RPMI 1640 with 2% glucose
[23] = S. aureus ATCC 43300, Luria-Bertani broth, 24 h, 37°C
[24] = E. faecalis ATCC 29212, Luria-Bertani broth, 24 h, 37°C
[25] = S. enteritidis ATCC 13075, Luria-Bertani broth, 37°C
[26] = C. glabrata ATCC 2001, RPMI 1640 with 2% glucose

Row | Structure (SMILES) | interaction with C. albicans genomic DNA (emission of EthBr-DNA system on gel) [1] | MIC [2, 16] [µg/mL] | MIC [3, 17] [µg/mL] | Hypochromism (calf thymus DNA (ctDNA)) [%] | MIC (C. albicans ATCC 10231; [18]) [µg/mL] | effect on C. albicans hyphae formation [4] | MIC [5, 19] [µg/mL] | IC50 (cytotoxic effect on MRC-5 cells) [6] | MIC [7, 20] [µg/mL] | MIC [8, 21] | MIC (C. krusei ATCC 6258; [22]) [µg/mL] | MIC [9, 23] [µg/mL] | MIC [10, 24] [µg/mL] | MIC [11, 25] [µg/mL] | MIC (C. glabrata ATCC 2001; [26]) [µg/mL] | Tryptophan fluorescence quenching (emission decrease at 352 nm) [12] [%] | n (number of binding sites per albumin) [12] | outcome of infected zebrafish [13] | effect on C. albicans filamentation (C. albicans) | further results
1 | O=[N+]([O-])[O-].[Ag+].c1cc(CCc2ccncc2)ccn1 [Complex 1, {[Ag(bpa)]NO3}n] | Slightly higher interaction | 25 | 50 | 11.3 | 6.25 | did not significantly affect the hyphae formation | 50 | 40^b μg/mL | 3.1 | 12.5^a μg/mL | 6.25 | 50 | 12.5 | 50 | 6.25 | 65.65 | 1.14 |  |  | effect on C. albicans growth under filamentation conditions [4]: reduced the growth
2 | O.O=S(=O)([O-])C(F)(F)F.[Ag+].c1cc(CCc2ccncc2)ccn1.c1cc(CCc2ccncc2)ccn1 [Complex 2, {[Ag(bpa)2]CF3SO3^.H2O}n] | Slightly higher interaction | 12.5 | 200 | 12.0 | 6.25 | decreased number and length of hyphae | 50 | 30 µg/mL | 2.5 | 12.5 µg/mL | 3.1 | 200 | 25 | 50 | 12.5 | 76.10 | 1.10 |  |  | 
3 | C(=C\c1ccncc1)/c1ccncc1.O=S(=O)([O-])C(F)(F)F.[Ag+] [Complex 3, {[Ag(bpe)]CF3SO3}n] |  | 250 | 25 | 3.8 | 25 | did not significantly affect the hyphae formation | 25 | 40 µg/mL | 3.1 | 12.5 µg/mL | 6.25 | 100 | 25 | 200 | 25 | 81.13 | 1.30 |  |  | K A (calf thymus DNA (ctDNA)): 59.16 M⁻¹
4 | O=C([O-])C(F)(F)F.[Ag+].c1cnc2ccc3ncccc3c2c1 [[Ag(CF3COO)(4,7-phen)]n] |  |  |  |  |  |  |  |  |  |  |  |  |  |  |  |  |  | rescued the infected zebrafish of the lethal infection outcome | totally prevented C. albicans filamentation | 
5 | O=[N+]([O-])[O-].[Ag+].c1cnc2ccc3ncccc3c2c1 [[Ag(NO3)(4,7-phen)]n] |  |  |  |  |  |  |  |  |  |  |  |  |  |  |  |  |  | rescued the infected zebrafish of the lethal infection outcome | totally prevented C. albicans filamentation | 
6 | c1cc(CCc2ccncc2)ccn1 [bpa, 1,2-Bis(4-pyridyl)ethane] |  |  |  |  |  |  |  |  |  |  |  |  |  |  |  |  |  |  |  | MIC ([2]; Salmonella enterica): > 500 µg/mL; MIC ([3]; Pseudomonas aeruginosa, PAO1, 24 h): > 500 µg/mL; MIC (C. albicans ATCC 10231; Candida albicans, ATCC10231): 125 µg/mL (≈ 678 µM); MIC ([5]; Listeria monocytogenes, NCTC11994, 24 h): > 500 µg/mL; MIC / antibacterial activity [14]: not significant; IC50 at 48 h [15]: 300 µg/mL (≈ 1630 µM); MIC ([7]; Lodderomyces parapsilosis, ATCC22019): 250 µg/mL (≈ 1360 µM); MIC ([8]; Escherichia coli, NCTC9001, 24 h): > 500 µg/mL; MIC (C. krusei ATCC 6258; Pichia kudriavzevii, ATCC6258): 125 µg/mL (≈ 678 µM); MIC ([9]; Staphylococcus aureus, ATCC43300, 24 h): > 500 µg/mL; MIC ([10]; Enterococcus faecalis, ATCC29212, 24 h): > 500 µg/mL; MIC ([11]; Salmonella enterica): > 500 µg/mL; MIC (C. glabrata ATCC 2001; Nakaseomyces glabratus, ATCC2001): > 500 µg/mL
